Data taken from patent US20230255927A1 (ELANCO TIERGESUNDHEIT AG, priority 2022, published 2023).

Assays:
[1] = tested on: lactating Holstein cows; test: Wisconsin Study: dietary monensin fed to lactating cows for 9 weeks; assay type: in vivo
Method: Methods: […] All cows received 11 g/ton Rumensin for a 5-week covariate period after which pens received 1 of 4 dietary treatments (n=3) formulated to provide 0 g/ton (Control, “CON”), 11 g/ton (R11), 14.5 g/ton (R14.5), or 18 g/ton (R18) of Rumensin for 9 weeks. Basal diet was 54% forage and 27% Neutral Detergent Fiber (NDF), 29% starch, and 2.3% Rumen Unsaturated Fatty Acid Load (RUFAL). The pen was the experimental unit, and data were analyzed using the Fit Model Procedure of JMP with treatment as a fixed effect and pen as a random effect. LS-means were determined and contrasts of CON vs. R11, CON vs. R14.5, CON vs. R18, and linear and quadratic effects were tested.

[2] = tested on: lactating dairy cows; test: New York/Cornell Study: dietary monensin fed to lactating dairy cows; assay type: in vivo
From the text: Lactating dairy cows were used for the instant example. Methods: One-hundred ninety-two lactating cows (120±50 DIM) were randomly assigned to 12 pens each including 16 cows.

[3] = all treatments, not affected by treatment

CC[C@@]1([C@@H]2O[C@@H]([C@H]3O[C@@](O)(CO)[C@H](C)C[C@@H]3C)C[C@@H]2C)CC[C@H]([C@]2(C)CC[C@]3(C[C@H](O)[C@@H](C)[C@@H]([C@@H](C)[C@@H](OC)[C@H](C)C(=O)O)O3)O2)O1 [monensin]
DMI ([1]; R11, 11 g/ton): 60 lb/d
De novo fatty acid yield ([1]; R11, 11 g/ton): 0.99 g/100 g milk
ECM ([1]; R11, 11 g/ton): 106 lb/d
Estimated Dietary Energy ([1]; R11, 11 g/ton): 1.70 Mcal/kg DM
Milk Fat ([1]; R11, 11 g/ton): 4.13%
Milk Yield ([1]; R11, 11 g/ton): 98 lb/d
Protein ([1]; R11, 11 g/ton): 3.16%
Milk fat yield increase vs. CON ([1]; R11, 11 g/ton, P=0.04): 0.08 kg/day
ECM/DMI increase vs. CON ([1]; R11, 11 g/ton, P=0.05): 2.9%
ECM increase vs CON ([1]; R11, 11 g/ton, P=0.09): 1.3 kg/day
DMI ([1]; R14.5, 14.5 g/ton): 60 lb/d
ECM ([1]; R14.5, 14.5 g/ton): 105 lb/d
Estimated Dietary Energy ([1]; R14.5, 14.5 g/ton): 1.71 Mcal/kg DM
Milk Fat ([1]; R14.5, 14.5 g/ton): 4.04%
Milk Yield ([1]; R14.5, 14.5 g/ton): 99 lb/d
Protein ([1]; R14.5, 14.5 g/ton): 3.14%
ECM/DMI increase vs. CON ([1]; R14.5, 14.5 g/ton, P=0.02): 3.5%
DMI ([1]; R18, 18 g/ton): 58 lb/d
ECM ([1]; R18, 18 g/ton): 102 lb/d
Estimated Dietary Energy ([1]; R18, 18 g/ton): 1.73 Mcal/kg DM
Milk Fat ([1]; R18, 18 g/ton): 3.97%
Milk Yield ([1]; R18, 18 g/ton): 97 lb/d
Protein ([1]; R18, 18 g/ton): 3.14%
Estimated dietary energy increase vs. CON ([1]; R18, 18 g/ton, P=0.01): 3.0%
ECM/DMI increase vs. CON ([1]; R18, 18 g/ton, P=0.09): 2.3%
DMI ([1]; R18, 18 g/ton, listed as Rumensin): 26.4 kg/day
Milk Yield [1, 3]: 44 kg/day
Milk fat percentage [1, 3]: 4.0%
Milk protein percentage [1, 3]: 3.2%
Milk protein yield [1, 3]: 1.4 kg/day
DMI ([2]; R11, 11 g/ton): 59 lb/d
ECM ([2]; R11, 11 g/ton): 103 lb/d
Estimated Dietary Energy ([2]; R11, 11 g/ton): 1.65 Mcal/kg DM
Milk Fat ([2]; R11, 11 g/ton): 4.67%
Milk Yield ([2]; R11, 11 g/ton): 88 lb/d
Protein ([2]; R11, 11 g/ton): 3.38%
Energy-corrected milk (ECM) ([2]; R11 group, 11 g/ton): 46.9 kg/day
Milk Yield ([2]; R11 group, 11 g/ton): 39.9 kg/day
Milk fat yield ([2]; R11 group, 11 g/ton): 1.83 kg/day
Milk protein yield ([2]; R11 group, 11 g/ton): 1.33 kg/day
DMI ([2]; R14.5, 14.5 g/ton): 59 lb/d
ECM ([2]; R14.5, 14.5 g/ton): 104 lb/d
Estimated Dietary Energy ([2]; R14.5, 14.5 g/ton): 1.65 Mcal/kg DM
Milk Fat ([2]; R14.5, 14.5 g/ton): 4.71%
Milk Yield ([2]; R14.5, 14.5 g/ton): 87 lb/d
Protein ([2]; R14.5, 14.5 g/ton): 3.37%
Energy-corrected milk (ECM) ([2]; R14.5 group, 14.5 g/ton): 47.1 kg/day
FA unsaturation compared to CON ([2]; R14.5 group, 14.5 g/ton): significantly reduced
Milk Yield ([2]; R14.5 group, 14.5 g/ton): 39.7 kg/day
Milk fat yield ([2]; R14.5 group, 14.5 g/ton): 1.85 kg/day
Milk protein yield ([2]; R14.5 group, 14.5 g/ton): 1.33 kg/day
DMI ([2]; R18, 18 g/ton): 61 lb/d
ECM ([2]; R18, 18 g/ton): 103 lb/d
Estimated Dietary Energy ([2]; R18, 18 g/ton): 1.68 Mcal/kg DM
Milk Fat ([2]; R18, 18 g/ton): 4.67%
Milk Yield ([2]; R18, 18 g/ton): 87 lb/d
Protein ([2]; R18, 18 g/ton): 3.39%
DMI ([2]; R18 group, 18 g/ton): increased numerically
Energy-corrected milk (ECM) ([2]; R18 group, 18 g/ton): 46.8 kg/day
FA unsaturation compared to CON ([2]; R18 group, 18 g/ton): significantly reduced
Milk Yield ([2]; R18 group, 18 g/ton): 39.6 kg/day
Milk fat yield ([2]; R18 group, 18 g/ton): 1.83 kg/day
Milk protein yield ([2]; R18 group, 18 g/ton): 1.33 kg/day
Milk fat percentage ([2]; all treatment groups): greater than 4.6%
Milk true protein percent ([2]; all treatment groups): ≥ 3.35%
Increase in ECM ([2]; increasing monensin supplementation, non-significant): 2%
